Experiments:
[1] = Cytotoxicity in mock-infected MT-4 cells, MTT method; assay type: cell-based; details: human, mock-infected MT-4 cells, CC50, mock-infected MT-4 cells
[2] = tested on: HIV-1 mutant strain L100I; assay: microbe, parasite or virus in culture; assay type: cell-based; details: Human immunodeficiency virus 1, MT4, read-out: EC50 L100I
[3] = tested on: HIV-1 mutant strain K103N; assay: microbe, parasite or virus in culture; assay type: cell-based; details: Human immunodeficiency virus 1, MT4, read-out: EC50 K103N
[4] = tested on: HIV-1 mutant strain Y181C; assay: microbe, parasite or virus in culture; assay type: cell-based; details: Human immunodeficiency virus 1, MT4, read-out: EC50 Y181C
[5] = tested on: HIV-1 mutant strain Y188L; assay: microbe, parasite or virus in culture; assay type: cell-based; details: Human immunodeficiency virus 1, MT4, read-out: EC50 Y188L
[6] = tested on: HIV-1 mutant strain E138K; assay: microbe, parasite or virus in culture; assay type: cell-based; details: Human immunodeficiency virus 1, MT4, read-out: EC50 E138K
[7] = tested on: HIV-1 mutant strain F227L + V106A; assay: microbe, parasite or virus in culture; assay type: cell-based; details: Human immunodeficiency virus 1, MT4, read-out: EC50 F227L + V106A
[8] = tested on: HIV-1 mutant strain RES056 (K103N + Y181C); assay: microbe, parasite or virus in culture; assay type: cell-based; details: Human immunodeficiency virus 1, MT4, read-out: EC50 RES056
HIV-1 WT strain (IIIB) = assay: Anti-HIV activity against WT HIV-1; details: WT HIV-1 IIIB

SMILES	CC50 at 5 days [1] [nM]	EC50 [2] [nM]	EC50 [3] [nM]	EC50 [4] [nM]	EC50 [5] [nM]	EC50 [6] [nM]	EC50 [7] [nM]	EC50 [8] [nM]	SI IIIB (CC50/EC50 ratio) (HIV-1 WT strain (IIIB))
Cc1cc(C)cc(S(=O)(=O)c2c(C(=O)NCCNS(=O)(=O)c3ccc(F)cc3)[nH]c3ccc(Cl)cc23)c1 [R4L2, 5-Chloro-3-((3,5-dimethylphenyl)sulfonyl)-N-(2-((4-fluorophenyl)sulfonamido)ethyl)-1H-indole-2-carboxamide]	> 222000	210 ± 36	360 ± 160	370 ± 140	3000 ± 53	370 ± 110	830 ± 120	3230 ± 18	>7921
Cc1cc(C)cc(S(=O)(=O)c2c(C(=O)NCCCNS(=O)(=O)c3ccc(F)cc3)[nH]c3ccc(Cl)cc23)c1 [R4L3, 5-Chloro-3-((3,5-dimethylphenyl)sulfonyl)-N-(3-((4-fluorophenyl)sulfonamido)propyl)-1H-indole-2-carboxamide]	35000 ± 6970	240 ± 35	450 ± 100	690 ± 17	2840 ± 52	260 ± 17	1040 ± 35	3550 ± 350	901
Cc1cc(C)cc(S(=O)(=O)c2c(C(=O)NCCCCNS(=O)(=O)c3ccc(F)cc3)[nH]c3ccc(Cl)cc23)c1 [R4L4, 5-Chloro-3-((3,5-dimethylphenyl)sulfonyl)-N-(4-((4-fluorophenyl)sulfonamido)butyl)-1H-indole-2-carboxamide]	> 211000	56 ± 36	190 ± 51	200 ± 34	1270 ± 200	63 ± 3	290 ± 120	> 211000	>10,593
Cc1cc(C)cc(S(=O)(=O)c2c(C(=O)NCCCCCNS(=O)(=O)c3ccc(F)cc3)[nH]c3ccc(Cl)cc23)c1 [R4L5, 5-Chloro-3-((3,5-dimethylphenyl)sulfonyl)-N-(5-((4-fluorophenyl)sulfonamido)pentyl)-1H-indole-2-carboxamide]	144000 ± 13200	74 ± 10	510 ± 210	180 ± 17	1670 ± 350	73 ± 20	380 ± 17	> 31200	7527
Cc1cc(C)cc(S(=O)(=O)c2c(C(=O)NCCNS(=O)(=O)c3ccc(C#N)cc3)[nH]c3ccc(Cl)cc23)c1 [R5L2, 5-Chloro-3-((3,5-dimethylphenyl)sulfonyl)-N-(2-((4-cyanophenyl)sulfonamido)ethyl)-1H-indole-2-carboxamide]	23600 ± 580	770 ± 35	840 ± 35	890 ± 18	3070 ± 120	1260	1750 ± 53	3370 ± 210	362
Cc1cc(C)cc(S(=O)(=O)c2c(C(=O)NCCCNS(=O)(=O)c3ccc(C#N)cc3)[nH]c3ccc(Cl)cc23)c1 [R5L3, 5-Chloro-3-((3,5-dimethylphenyl)sulfonyl)-N-(3-((4-cyanophenyl)sulfonamido)propyl)-1H-indole-2-carboxamide]	22600 ± 890	330 ± 34	920 ± 410	980 ± 51	3340 ± 17	270 ± 17	1220 ± 51	4090	732
Cc1cc(C)cc(S(=O)(=O)c2c(C(=O)NCCCCNS(=O)(=O)c3ccc(C#N)cc3)[nH]c3ccc(Cl)cc23)c1 [R5L4, 5-Chloro-3-((3,5-dimethylphenyl)sulfonyl)-N-(4-((4-cyanophenyl)sulfonamido)butyl)-1H-indole-2-carboxamide]	4580 ± 3530	25 ± 2	67 ± 5	54 ± 2	150 ± 10	32 ± 18	82 ± 35	> 4580	279
Cc1cc(C)cc(S(=O)(=O)c2c(C(=O)NCCCCCNS(=O)(=O)c3ccc(C#N)cc3)[nH]c3ccc(Cl)cc23)c1 [R5L5, 5-Chloro-3-((3,5-dimethylphenyl)sulfonyl)-N-(5-((4-cyanophenyl)sulfonamido)pentyl)-1H-indole-2-carboxamide]	> 204000	77 ± 23	560 ± 130	210	1700 ± 520	160 ± 16	340 ± 82	11900 ± 4900	>6158
Cc1cc(C)cc(S(=O)(=O)c2c(C(=O)NCCNS(=O)(=O)c3ccc(Br)cc3)[nH]c3ccc(Cl)cc23)c1 [R6L2, 5-Chloro-3-((3,5-dimethylphenyl)sulfonyl)-N-(2-((4-bromophenyl)sulfonamido)ethyl)-1H-indole-2-carboxamide]	151000 ± 19300	750 ± 64	950 ± 160	1010 ± 32	≥ 33700	1270 ± 110	2730 ± 480	≥ 12200	964
Cc1cc(C)cc(S(=O)(=O)c2c(C(=O)NCCCNS(=O)(=O)c3ccc(Br)cc3)[nH]c3ccc(Cl)cc23)c1 [R6L3, 5-Chloro-3-((3,5-dimethylphenyl)sulfonyl)-N-(3-((4-bromophenyl)sulfonamido)propyl)-1H-indole-2-carboxamide]	88100 ± 18100	780 ± 140	1040 ± 190	1320 ± 190	5260 ± 1040	470 ± 200	1480 ± 110	> 88100	645
Cc1cc(C)cc(S(=O)(=O)c2c(C(=O)NCCCCNS(=O)(=O)c3ccc(Br)cc3)[nH]c3ccc(Cl)cc23)c1 [R6L4, 5-Chloro-3-((3,5-dimethylphenyl)sulfonyl)-N-(4-((4-bromophenyl)sulfonamido)butyl)-1H-indole-2-carboxamide]	26900 ± 16900	320 ± 150	690 ± 110	600 ± 31	1000 ± 150	780 ± 540	510 ± 92	> 26900	347
Cc1cc(C)cc(S(=O)(=O)c2c(C(=O)NCCCCCNS(=O)(=O)c3ccc(Br)cc3)[nH]c3ccc(Cl)cc23)c1 [R6L5, 5-Chloro-3-((3,5-dimethylphenyl)sulfonyl)-N-(5-((4-bromophenyl)sulfonamido)pentyl)-1H-indole-2-carboxamide]	37900 ± 6320	120 ± 39	740 ± 90	350	2470 ± 30	320 ± 15	680 ± 75	> 37900	501
Cc1cc(C)cc(S(=O)(=O)c2c(C(=O)NCCNS(=O)(=O)c3ccc(Cl)cc3)[nH]c3ccc(Cl)cc23)c1 [R7L2, 5-Chloro-3-((3,5-dimethylphenyl)sulfonyl)-N-(2-((4-chlorophenyl)sulfonamido)ethyl)-1H-indole-2-carboxamide]	175000 ± 42800	170 ± 41	220	310 ± 160	2660 ± 170	360 ± 17	1040 ± 350	3090 ± 500	13,010
Cc1cc(C)cc(S(=O)(=O)c2c(C(=O)NCCCNS(=O)(=O)c3ccc(Cl)cc3)[nH]c3ccc(Cl)cc23)c1 [R7L3, 5-Chloro-3-((3,5-dimethylphenyl)sulfonyl)-N-(3-((4-chlorophenyl)sulfonamido)propyl)-1H-indole-2-carboxamide]	> 211000	98 ± 52	220	570 ± 250	190 ± 190	610 ± 120	2610 ± 120	9000 ± 510	>12,913

From PMC10326263 (Acta Pharmaceutica Sinica. B, 2023)
